# Results from patent US20100239556A1, “PROMOTING ECM PRODUCTION BY FIBROBLAST CELLS AND/OR PROMOTING MIGRATION OF FIBROBLAST CELLS IN A BIOLOGICAL SYSTEM” (TGR BioScience Pty Ltd., priority 2006, published 2010).
# B1: horse radish peroxidase (protein, UniProt P00433 31-338, looked up)
# Peroxidase C1A: QLTPTFYDNSCPNVSNIVRDTIVNELRSDPRIAASILRLHFHDCFVNGCDASILLDNTTSFRTEKDAFGNANSARGFPVIDRMKAAVESACPRTVSCADLLTIAAQQSVTLAGGPSWRVPLGRRDSLQAFLDLANANLPAPFFTLPQLKDSFRNVGLNRSSDLVALSGGHTFGKNQCRFIMDRLYNFSNTGLPDPTLNTTYLQTLRGLCPLNGNLSALVDFDLRTPTIFDNKYYVNLEEQKGLIQSDQELFSSPNATDTIPLVRSFANSTQTFFNAFVEAMDRMGNITPLTGTQGQIRLNCRVVNSNS
# Columns and labels:
# [1] = system: human foreskin fibroblast cells (HFF); assay: Soluble collagen I, III and VI in HFF conditioned media (direct coat ELISA); type: cell-based; conditions: for ECM protein levels in the media of HFF cells: 6 hour treatment, following 72 hours; for collagen I concentration in the media: ARP, HRP, SBP 12.5 μg/ml, LP 160 μg/ml, MP 250 μg/ml, untreated control 0.08 μg/ml; for collagen VI in the cell media: untreated control 0.03 ug/ml; for collagen VI levels: both 5 and 7 days; for increase in collagen VI, steady state: 72 hours (ARP response not statistically significant, p=0.08); for collagen III levels: untreated control 0.11 μg/ml
# Description: Primary human foreskin fibroblast cells (HFF) were seeded into 96 well plates at a density of 1.2×10^4 cells/well and cultured overnight in 10% fetal bovine serum/Dulbecco's minimum essential media (10% FBS/DMEM) at 37° C. and 5% CO2. The cells were then starved overnight in serum free DMEM and triplicate wells treated for six hours with a range of doses of proteins with peroxidase activity; horse radish peroxidase (HRP; 0.2-50 ug/ml), Arthromyces ramosus peroxidase (ARP; 0.2-50 ug/ml), microperoxidase (MP; 8-500 ug/ml), soy bean peroxidase (SBP; 0.2-100 ug/ml) and lactoperoxidase (LP; 10-310 ug/ml) (all obtained from Sigma-Aldrich). At the end of the six hour treatment period, the media was aspirated and replaced with fresh serum free DMEM and the cells cultured for a further 72 hours. […] This assay measures the reduction of oxidized, blue nonfluorescent Alamar Blue reagent to a pink fluorescent dye in the cell medium, such that the higher the amount of reduction, the greater the cell number and/or activity (O'Brien Eur J Biochem 267 2000). Briefly, cells were bathed in a 10% Alamar Blue/phosphate-buffered saline (PBS) solution for 30-60 minutes and fluorescence measured at wavelengths of 485 nm excitation and 595 nm emission using a Wallac Victor Multilabel HTS counter. Relative fluorescent units (RFU) for each sample were normalized to control wells (DMEM only treated cells) and data expressed as mean±standard error of the mean (sem) for triplicate wells. Experiments were repeated at least three times with the combined data from all experiments shown.
# The amount of soluble collagen types I, III, and VI in HFF conditioned media was measured by a direct coat ELISA method using standard curves constructed from purified human collagen I, III or VI (extracted from human placenta; col I, BD Biosciences; col III and VI, Rocklands Immunochemicals) and fibronectin (extracted from human plasma, Chemicon). Samples and standards (20 μl/well) were added to a 384 well spectraplate (Packard BioScience) and left at room temperature (RT) overnight. The spectraplate was then washed 6 times with PBS-tween 0.05% (PBS-T) and 2.5% bovine serum albumin (BSA)/PBS blocking solution added to each well and the plate incubated for 1 hour at RT. The plate was then washed 6 times with PBS-T and primary antibody (0.25 μg/ml rabbit-anti-human-collagen I polyclonal; 2 μg/ml rabbit-anti-human-collagen III polyclonal; 0.25 μg/ml rabbit-anti-human-collagen VI polyclonal; 0.2 μg/ml rabbit-anti-human-fibronectin polyclonal, all from Rockland Immunochemicals) in 5% non-fat dairy milk added to each well for four hours at RT. After washing (6×PBS-T), europium tagged anti-rabbit secondary antibody (0.5 μg/ml 1% BSA/PBS; Wallac Oy) was added for 1 hour at RT. After a final wash (6×PBS-T), enhancement solution was added for at least 10 minutes and fluorescence measured at excitation 340 nm and emission 615 nm using a Wallac Victor Multilabel HTS counter. The respective ECM concentration of each sample was determined from the standard curve (μg/ml) and normalized to control wells (DMEM only treated cells) with the mean±sem for triplicate wells calculated. Experiments were repeated at least three times with the combined data from all experiments shown.
# [2] = system: human foreskin fibroblast cells (HFF cells); assay: Repeated stimulation of collagen I production; type: cell-based; conditions: for total collagen I, stimulated twice versus once within a seven day culture period: day 0-2 plus day 2-7 versus day 0-7; for collagen I production after a second stimulation relative to the first stimulation: restimulated after 48 hours, further 5 days
# Description: Experiments were performed to ensure human fibroblast cells could be stimulated to increase ECM protein production by proteins having peroxidase activity after more than one application of the proteins having peroxidase activity. The capacity to respond repeatedly to the proteins having peroxidase activity provides important utility for the generation of ECM in vitro, particularly given that spent culture media needs to be replaced on a regular basis to maintain the viability of the cells. These experiments were performed using human foreskin fibroblast cells (HFF cells) seeded into 96 well plates at a density of 1.2×10^4 cells/well and cultured for one week in 10% fetal bovine serum/Dulbecco's minimum essential media (10% FBS/DMEM) at 37° C. and 5% CO2 (as described in Example 3). The confluent cells were then starved overnight in serum free DMEM and triplicate wells treated for six hours with MP, ARP and LP as representative proteins having peroxidase activity or the control agents transforming growth factor β2 (TGFβ2; R&D Systems) and 10% FBS (JRH BioSciences). After 48 hours, the conditioned media was collected for measurement of collagen I (as a representative ECM protein) and the cells either restimulated for six hours with fresh solutions containing proteins having peroxidase activity or control agents or the media was replaced with fresh serum free DMEM. The cells were cultured for a further 5 days after which the media was collected a second time for the measurement of collagen I. Media was also collected from replicate wells treated at the start of the experiment and left for 7 days (total culture period) for comparison.
# dermis = assay: Fibrogenic response after intradermal injection; type: in vivo, Sprague-Dawley rats
# Description: Groups of up to 4-8 female Sprague-Dawley rats were lightly anaesthetized and the dorsum shaved. At different sites on their dorsum, each rat received a bolus, intradermal injection of 4 doses of a protein with peroxidase activity (LP, […]; HRP, 1.25-25 μg; SBP, 1.25-25 μg; or micro-peroxidase [MP], 5-125 μg), a vehicle control or TGFβ2 as a positive control. Arthromyces ramosus peroxidase (ARP) was also injected at one dose of 25 μg. Proteins with peroxidase activity were injected in a volume of 50 μl which was sufficient to create a small blister in the skin that resolved within a few minutes. Across the group of rats, each dose of proteins with peroxidase activity was injected into each of the different injection sites to control for any site-related, intra-rat variation. The rats were returned to their cage and left alone for 3 days after which they were killed by CO2 asphyxiation and the skin at the injection sites collected for analysis. The skin at the injection sites was excised using a 6 mm biopsy punch with each piece bisected and fixed in 10% buffered formalin. Fixed tissue was processed for histological assessment by graded dehydration and mounting in paraffin blocks. Blocks were sectioned and sections stained with haematoxylin and eosin (H&E) and Masson's trichrome for qualitative analysis by an experienced pathologist. H&E stained sections were scored for the “fibroblast reaction” (1+-4+) to reflect the number of fibroblast cells identified at the injection site, with 4+ representing the greatest response. H&E and Massons trichrome stained sections were used to evaluate the amount of deposited, collagen-rich extracellular matrix (ECM) that was associated with the fibroblast reaction at each injection site. The collagen-rich ECM deposition was scored 1+-3+ with 3+ representing the greatest response. The scores were combined across the group of rats and statistical analysis performed using a Kruskal-Wallis one way analysis of variance on ranks (ANOVA) followed by post-hoc t-test comparing the response of the proteins with peroxidase activity to the control using Dunn's or Dunnett's method, p<0.05 was considered significant.
# [3] = doses between 6.25 and 50 μg/ml
# [4] = 50 μg and 125 μg, 3 days, p<0.05
# [5] = intradermal, 3 days, over the doses tested
molecule,measurement,setting,value
Arthromyces ramosus peroxidase [ARP],increase in collagen I compared to controls,"[1]; 0.4 μg/ml, 72 hours",1.4 fold
same,increase in collagen I compared to controls,"[1]; 25 μg/ml, 72 hours",5.8 fold
same,decrease in collagen III compared to control levels,"[1]; 25 and 50 μg/ml, 72 hours",50%
same,ECM protein levels in the media of HFF cells,[1],increased ECM protein levels dose dependently
same,collagen I concentration in the media,[1]; 5 days,0.6 µg/mL
same,collagen I concentration in the media,[1]; 7 days,0.6 µg/mL
same,collagen VI in the cell media,[1]; 7 days,0.11 µg/mL
same,increase in collagen III,"[1]; any dose used, 72 hours",did not induce a significant increase
same,collagen VI levels,[1],increased the collagen VI levels
same,"increase in collagen VI, steady state",[1]; [3],2 fold
same,"total collagen I, stimulated twice versus once within a seven day culture period",[2],markedly greater total collagen I levels
same,collagen I production after a second stimulation relative to the first stimulation,[2],produced a greater response when stimulated a second time
same,"deposition of collagen rich ECM, histology score (1+-3+)","dermis; 25 μg, 72 hours",two
same,"fibroblast reaction, histology score (1+-4+)","dermis; 25 μg, 72 hours",two
lactoperoxidase [LP],increase in collagen I compared to controls,"[1]; 80 μg/ml, 6 h treatment, 72 hours",4 fold
same,increase in collagen I compared to controls,"[1]; 310 μg/ml, 72 hours",8 fold
same,increase in collagen VI levels,"[1]; 160 and 310 μg/ml, 72 hours",2 fold
same,ECM protein levels in the media of HFF cells,[1],increased ECM protein levels dose dependently
same,collagen I concentration in the media,[1]; 5 days,1.1 µg/mL
same,collagen III levels,[1]; 5 days,0.18 µg/mL
same,collagen VI in the cell media,[1]; 7 days,0.07 µg/mL
same,collagen VI levels,[1],increased the collagen VI levels
same,changes in collagen III levels (non-significant),"[1]; doses from 10-310 μg/ml, 72 hours",1.5-1.7 fold
same,"total collagen I, stimulated twice versus once within a seven day culture period",[2],markedly greater total collagen I levels
same,collagen I production after a second stimulation relative to the first stimulation,[2],at least equivalent to that obtained with the first stimulation
same,deposition of collagen-rich ECM versus control,dermis; [4],significant increase compared to the control
same,fibroblast reaction versus vehicle control,dermis; [4],statistically significant response
same,number of fibroblasts present at the injection site (H&E images),"dermis; LP 125 μg, TGFβ 0.5 μg, 3 days",profound increase in the number of fibroblasts
same,deposition of collagen-rich ECM versus control,dermis; [5],dose-dependent effect
same,fibroblast reaction / tissue fibroblast content at the injection site versus control,dermis; [5],dose-dependent increase in the fibroblast reaction
microperoxidase [MP],ECM protein levels in the media of HFF cells,[1],increased ECM protein levels dose dependently
same,collagen I concentration in the media,[1]; 5 days,0.17 µg/mL
same,increase in collagen VI,"[1]; any dose used, 72 hours",did not induce a significant increase
same,"total collagen I, stimulated twice versus once within a seven day culture period",[2],responded in a similar way to cells treated with TGFβ2
same,collagen I production after a second stimulation relative to the first stimulation,[2],at least equivalent to that obtained with the first stimulation
same,deposition of collagen-rich ECM versus control,dermis; [5],"stimulated the deposition of collagen-rich ECM in a significant, dose dependent manner"
same,fibroblast reaction / tissue fibroblast content at the injection site versus control,dermis; [5],significantly increased the tissue fibroblast content
soy bean peroxidase [SBP],increase in collagen I compared to controls,"[1]; 0.4 μg/ml, 72 hours",1.6 fold
same,increase in collagen VI,"[1]; 0.4 μg/ml, 72 hours",1.2 fold
same,increase in collagen VI,"[1]; 50 μg/ml, 72 hours",5.4 fold
same,increase in collagen I compared to controls,"[1]; 25 and 50 μg/ml, 72 hours",10.5 fold
same,ECM protein levels in the media of HFF cells,[1],increased ECM protein levels dose dependently
same,collagen III levels,[1]; 5 days,0.15 µg/mL
same,collagen VI in the cell media,[1]; 7 days,0.09 µg/mL
same,"increase in collagen III, steady state","[1]; between 12.5 and 50 μg/ml, 72 hours",2.1-2.3 fold
same,collagen VI levels,[1],increased the collagen VI levels
same,deposition of collagen-rich ECM versus control,"dermis; 5-25 μg, 3 days, p<0.05",statistically significant response
same,tissue fibroblast content versus control,"dermis; 5-25 μg, 3 days, p<0.05",statistically significant response
same,deposition of collagen-rich ECM versus control,dermis; [5],markedly increased
same,fibroblast reaction / tissue fibroblast content at the injection site versus control,dermis; [5],markedly increased the tissue fibroblast content
B1,increase in collagen I compared to controls,"[1]; 0.2 μg/ml, 72 hours",1.5 fold
same,increase in collagen VI compared to controls,"[1]; 1.56 μg/ml, 72 hours",2 fold
same,increase in collagen III compared to controls,"[1]; 3.12 μg/ml, 72 hours",3 fold
same,increase in collagen I compared to controls,"[1]; 50 μg/ml, 72 hours",10 fold
same,increase in collagen III compared to controls,"[1]; 25 and 50 μg/ml, 72 hours",4 fold
same,ECM protein levels in the media of HFF cells,[1],increased ECM protein levels dose dependently
same,collagen III levels,[1]; 5 days,0.22 µg/mL
same,collagen III level,"[1]; 7 days, 12.5 μg/ml, untreated control 0.06 μg/ml",0.3 µg/mL
same,collagen VI in the cell media,[1]; 7 days,0.13 µg/mL
same,collagen VI levels,[1],increased the collagen VI levels
same,"increase in collagen I, steady state response","[1]; doses between 6.25 and 50 μg/ml, 72 hours",9-10 fold
same,"increase in collagen VI, steady state",[1]; [3],3-3.5 fold
same,deposition of collagen-rich ECM versus control,"dermis; 25 μg, 3 days, p<0.05",statistically significant response
same,tissue fibroblast content versus control,"dermis; 25 μg, 3 days, p<0.05",statistically significant response
same,deposition of collagen-rich ECM versus control,dermis; [5],markedly increased
same,fibroblast reaction / tissue fibroblast content at the injection site versus control,dermis; [5],markedly increased the tissue fibroblast content
